Assay results published in ChEMBL document CHEMBL1201862, “PubChem BioAssay data set” (2004).
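Cells were grown in 96-well plates and exposed to each compound for 48 hours at five concentrations; endpoints were interpolated linearly between bracketing concentrations, or set to the highest concentration if not reached. Here, GI50 denotes the concentration required for 50% inhibition of growth.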 Activity calls are given as the source filed them. No stated cut-off is given here; in the data, active = GI50 up to about 1.1 µM and inactive = higher. *1 amine or outer side, *2 acyl side, *3 side chain or, on linkers, in order; H or OH if unused. Where a SMILES comes first, the peptide text is derived from it. [ ]: non-standard residue; d: D form. The star is where a group is joined. X31 = CC(=O)N(C)SCC(N[*:1])C(=O)[*:2]; Fmoc = O=C(OCC1c2ccccc2-c2ccccc21)*; For = O=C*

Tests used:
Assay in all cases: inhibition of tumour cell growth, NCI panel, 48 h
A498 = tested on: A498
A549 = tested on: A549
ACHN = tested on: ACHN
HOP-92 = tested on: HOP-92
HT-29 = tested on: HT-29
KM12 = tested on: KM12
LOX IMVI = tested on: LOX IMVI
M14 = tested on: M14
MCF7 = tested on: MCF7
MDA-MB-231 = tested on: MDA-MB-231
NCI-H460 = tested on: NCI-H460
OVCAR-5 = tested on: OVCAR-5
SF-268 = tested on: SF-268
SF-539 = tested on: SF-539
SW-620 = tested on: SW-620
TK-10 = tested on: TK-10
U-251 = tested on: U-251
UACC-62 = tested on: UACC-62
HCC 2998 = tested on: HCC 2998

Measured: GI50

Cn1c(=O)c2nc(SCCN3CCOCC3)[nH]c2n(C)c1=S
inactive: A498 > 100 µM | A549 > 100 µM | ACHN > 100 µM | HOP-92 > 100 µM | HT-29 > 100 µM | KM12 > 100 µM | LOX IMVI > 100 µM | M14 > 100 µM | MCF7 > 100 µM | MDA-MB-231 > 100 µM | NCI-H460 > 100 µM | OVCAR-5 > 100 µM | SF-268 > 100 µM | SF-539 > 100 µM | SW-620 > 100 µM | TK-10 > 100 µM | U-251 > 100 µM | UACC-62 > 100 µM

N#Cc1ccc(Oc2nc3ccccc3nc2-c2ccccc2)cc1
inactive: A498 > 100 µM | ACHN > 100 µM | HCC 2998 > 100 µM | HOP-92 > 100 µM | HT-29 > 100 µM | KM12 > 100 µM | LOX IMVI > 100 µM | MCF7 > 100 µM | MDA-MB-231 > 100 µM | NCI-H460 > 100 µM | OVCAR-5 > 100 µM | SF-268 > 100 µM | SW-620 > 100 µM | TK-10 > 100 µM | U-251 > 100 µM | UACC-62 > 100 µM

CCOCc1nc2c(OC)c(-c3nc4ccc(N5CCN(C)CC5)cc4[nH]3)cc(OC)c2[nH]1
inactive: A498 37 µM | A549 46.9 µM | ACHN 57.4 µM | HOP-92 > 100 µM | HT-29 27.8 µM | KM12 31.6 µM | LOX IMVI 21.1 µM | M14 20.2 µM | MCF7 47.6 µM | MDA-MB-231 28.2 µM | NCI-H460 26.4 µM | OVCAR-5 83.6 µM | SF-268 63.4 µM | SF-539 19.3 µM | SW-620 34.7 µM | TK-10 53.3 µM | U-251 43.3 µM | UACC-62 19.6 µM

COC(=O)N1C[C@@]2(C=CC3(CC2)OCCO3)c2ccccc21
inactive: A498 > 100 µM | A549 > 100 µM | ACHN > 100 µM | HCC 2998 > 100 µM | HOP-92 44.1 µM | HT-29 28.2 µM | KM12 37.8 µM | LOX IMVI > 100 µM | M14 > 100 µM | MCF7 96.4 µM | MDA-MB-231 > 100 µM | NCI-H460 90.4 µM | OVCAR-5 > 100 µM | SW-620 40.8 µM | TK-10 > 100 µM | U-251 41.1 µM | UACC-62 65.5 µM

C[C@]12CCC(N3CCCC3)CC1=CC[C@@H]1[C@@H]2CC[C@]2(C)C(O)[C@H](n3ccnc3)C[C@@H]12 (some centres undefined)
inactive: A498 > 100 µM | A549 66.5 µM | ACHN 36.7 µM | HOP-92 > 100 µM | HT-29 5.85 µM | KM12 > 10 µM | LOX IMVI 34.4 µM | M14 15.7 µM | MCF7 45 µM | MDA-MB-231 > 100 µM | NCI-H460 42.6 µM | OVCAR-5 53.8 µM | SF-268 > 10 µM | SF-539 19 µM | SW-620 45.7 µM | TK-10 > 100 µM | U-251 75.9 µM | UACC-62 32.1 µM

Cc1ccc(C(=O)N/N=C(\N=N\c2ccccc2Cl)c2ccc(N(C)C)cc2)cc1
inactive: A549 50.6 µM | ACHN 13.3 µM | HCC 2998 25.1 µM | HOP-92 > 100 µM | HT-29 33.1 µM | KM12 21.9 µM | LOX IMVI 43.6 µM | M14 42.7 µM | MCF7 28.2 µM | MDA-MB-231 52.6 µM | NCI-H460 37.3 µM | OVCAR-5 68.4 µM | SF-268 > 100 µM | SF-539 21.4 µM | SW-620 > 100 µM | TK-10 > 100 µM | U-251 62.1 µM | UACC-62 4.55 µM

S=C(NC/C(Br)=C/Br)Nc1cccc2ccccc12
inactive: A498 33.5 µM | A549 34.2 µM | ACHN 28.9 µM | HOP-92 20.2 µM | HT-29 34.5 µM | LOX IMVI 24.8 µM | M14 16.8 µM | MCF7 20 µM | MDA-MB-231 19.4 µM | OVCAR-5 33.6 µM | SF-539 25.5 µM | TK-10 40.6 µM | U-251 30.3 µM | UACC-62 24.2 µM

COC(=O)Nc1nc2cc(S(=O)(=O)Nc3ccccn3)ccc2[nH]1
inactive: A498 61.1 µM | A549 80.7 µM | ACHN 63 µM | HOP-92 30.5 µM | HT-29 43.1 µM | KM12 32.1 µM | LOX IMVI 51.8 µM | M14 78.9 µM | MCF7 28.6 µM | MDA-MB-231 > 100 µM | NCI-H460 34.6 µM | OVCAR-5 > 100 µM | SF-268 72.6 µM | SF-539 22.7 µM | SW-620 17.1 µM | TK-10 33.3 µM | U-251 67.5 µM | UACC-62 42.6 µM

COc1cc(S(=O)(=O)Nc2nc(-c3ccc(N4C(=O)/C(=C/c5ccccc5[N+](=O)[O-])N=C4c4ccccc4)cc3)cs2)ccc1Cl
inactive: A498 > 100 µM | A549 > 100 µM | ACHN > 100 µM | HOP-92 88.3 µM | HT-29 > 100 µM | KM12 73.1 µM | LOX IMVI 50.2 µM | M14 > 100 µM | MCF7 34.6 µM | MDA-MB-231 19.9 µM | NCI-H460 > 100 µM | OVCAR-5 > 100 µM | SF-268 22.6 µM | SF-539 > 100 µM | SW-620 > 100 µM | TK-10 > 100 µM | U-251 46.6 µM | UACC-62 27 µM

OC1CCCN(C2(c3cccs3)CCCCC2)C1 (centres undefined)
inactive: A498 > 100 µM | ACHN > 100 µM | HCC 2998 > 100 µM | HOP-92 > 100 µM | HT-29 > 100 µM | KM12 > 100 µM | LOX IMVI > 100 µM | MCF7 > 100 µM | MDA-MB-231 > 100 µM | NCI-H460 > 100 µM | OVCAR-5 > 100 µM | SF-268 > 100 µM | SW-620 > 100 µM | TK-10 > 100 µM | U-251 > 100 µM | UACC-62 > 100 µM

CC(=O)N(C)SCC(NC(=O)C(Cc1ccccc1)NC(=O)OCC1c2ccccc2-c2ccccc21)C(=O)NC(Cc1ccccc1)C(=O)NC(Cc1cn(C=O)c2ccccc12)C(=O)NC(CCCCNC(=O)OCC1c2ccccc2-c2ccccc21)C(=O)NC(C(=O)NC(CSN(C)C(C)=O)C(=O)NC(C(N)=O)C(C)O)C(C)O (centres undefined) (Fmoc-F[X31]FW(For)K(Fmoc)T[X31]T-NH2; configuration not given here)
inactive: A549 > 100 µM | ACHN 37 µM | HCC 2998 > 100 µM | HOP-92 14.5 µM | HT-29 > 100 µM | KM12 19.8 µM | LOX IMVI > 100 µM | M14 31 µM | MCF7 47.4 µM | MDA-MB-231 14.9 µM | NCI-H460 33.5 µM | OVCAR-5 > 100 µM | SF-268 > 100 µM | SF-539 > 100 µM | SW-620 > 100 µM | TK-10 24.2 µM | U-251 > 100 µM | UACC-62 58.6 µM
